Assay results as given in ChEMBL document CHEMBL1128621, “Design and synthesis of nonpeptidal endothelin receptor antagonists based on the structure of a cyclic pentapeptide” (Bioorg Med Chem Lett, 1995).
Where a SMILES comes first, the peptide text is derived from it. [ ]: non-standard residue; d: D form.

Experiments:
[1] = target: T1, Endothelin receptor type B (Rattus norvegicus, UniProt P21451); experiment: Affinity against ET B receptor
T1 sequence (P21451 whole entry): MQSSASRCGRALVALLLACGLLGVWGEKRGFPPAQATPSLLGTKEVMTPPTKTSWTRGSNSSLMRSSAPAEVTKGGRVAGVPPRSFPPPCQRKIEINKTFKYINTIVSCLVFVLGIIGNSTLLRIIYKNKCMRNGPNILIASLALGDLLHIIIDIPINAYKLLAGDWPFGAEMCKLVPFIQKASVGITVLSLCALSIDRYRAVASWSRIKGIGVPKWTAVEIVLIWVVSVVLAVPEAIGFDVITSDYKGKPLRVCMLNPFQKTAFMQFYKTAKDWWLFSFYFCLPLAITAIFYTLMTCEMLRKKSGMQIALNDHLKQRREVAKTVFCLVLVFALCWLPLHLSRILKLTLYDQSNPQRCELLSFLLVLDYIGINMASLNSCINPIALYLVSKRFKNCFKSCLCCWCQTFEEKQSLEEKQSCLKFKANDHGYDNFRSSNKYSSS

Endothelin-1 receptor = target: T2, Endothelin-1 receptor (Homo sapiens, UniProt P25101); experiment: Affinity against ET A receptor
T2 sequence (P25101 whole entry): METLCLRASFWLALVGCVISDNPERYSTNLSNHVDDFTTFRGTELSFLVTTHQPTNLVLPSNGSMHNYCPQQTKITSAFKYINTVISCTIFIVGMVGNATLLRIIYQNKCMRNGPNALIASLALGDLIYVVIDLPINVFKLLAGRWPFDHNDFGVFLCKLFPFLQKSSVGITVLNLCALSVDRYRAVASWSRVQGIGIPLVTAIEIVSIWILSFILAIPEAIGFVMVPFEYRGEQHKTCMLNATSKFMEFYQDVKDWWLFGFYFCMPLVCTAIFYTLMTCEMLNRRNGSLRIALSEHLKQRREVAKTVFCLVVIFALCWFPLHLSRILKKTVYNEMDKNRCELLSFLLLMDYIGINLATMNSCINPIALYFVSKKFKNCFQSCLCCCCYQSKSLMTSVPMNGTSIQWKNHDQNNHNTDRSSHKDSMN

Row | Ki [1] [µM] | Ki (Endothelin-1 receptor) [µM] | Compound
1 | > 100 | 109 | O=C(O)CN1C(=O)c2ccccc2Nc2ccc(OCc3ccccc3)cc21
2 | 6 | 33 | CCCN1c2ccccc2C(=O)N(CC(=O)O)c2cc(NC(=O)c3cc4ccccc4[nH]3)ccc21
3 | 11 | 80 | CCCN1c2ccccc2C(=O)N(CC(=O)O)c2cc(NC(=O)c3c[nH]c4ccccc34)ccc21
4 | 12 | 41 | CCCN1c2ccccc2C(=O)N(CC(=O)O)c2cc(Cc3c[nH]c4ccccc34)ccc21
5 | – | 83 | CCCN1c2ccccc2C(=O)N(CC(=O)O)c2cc(NC(=O)c3cccc4ccccc34)ccc21
6 | – | 2.4 | CC(C)C[C@@H]1NC(=O)[C@@H](C(C)C)NC(=O)[C@@H]2CCCN2C(=O)[C@@H](CC(=O)O)NC(=O)[C@@H](Cc2ccccc2)NC1=O
7 | – | 0.224 | CC(C)C[C@@H]1NC(=O)[C@@H](C(C)C)NC(=O)[C@@H]2CCCN2C(=O)[C@@H](CC(=O)O)NC(=O)[C@@H](Cc2cccc3ccccc23)NC1=O
8 | – | 0.018 | CC(C)C[C@@H]1NC(=O)[C@@H](C(C)C)NC(=O)[C@@H]2CCCN2C(=O)[C@@H](CC(=O)O)NC(=O)[C@@H](Cc2c[nH]c3ccccc23)NC1=O [BQ-123] (cyclo(L[dW][dD]P[dV]))
9 | 7 | 14 | CCCN1c2ccccc2C(=O)N(CC(=O)O)c2cc(NC(=O)Cc3c[nH]c4ccccc34)ccc21
10 | 9 | 17 | CCCN1c2ccccc2C(=O)N(CC(=O)O)c2cc(NCc3cccc4ccccc34)ccc21
11 | 8 | 28 | O=C(O)CN1C(=O)c2ccccc2Nc2ccc(OCc3cccc4ccccc34)cc21
12 | 60 | 7 | CCCN1c2ccccc2C(=O)N(CC(=O)O)c2cc(OCc3cccc4ccccc34)ccc21
